In ChEMBL document CHEMBL1151518, “Synthesis, evaluation and Tc-99m complexation of a hydrazinonicotinyl conjugate of a GP IIb/IIIa antagonist cyclic peptide for the detection of deep vein thrombosis” (Bioorg Med Chem Lett, 1997):

Each compound was assayed against Integrin alpha-IIb/beta-3 (Canis lupus familiaris) (assay: Inhibition of 125I-fibrinogen binding to alpha IIb beta-3 integrin as inhibition of activated platelets).

First: CN1C(=O)[C@@H](CCCCNC(=O)c2ccc(NNC(=O)OC(C)(C)C)nc2)NC(=O)c2cccc(c2)CNC(=O)[C@H](CC(=O)O)NC(=O)CNC(=O)[C@@H]1CCCN=C(N)N
Second: CC(C)[C@H]1NC(=O)c2cc(cc(NC(=O)CCCCCNC(=O)c3ccc(NNC(=O)OC(C)(C)C)nc3)c2)CNC(=O)[C@H](CC(=O)O)NC(=O)CNC(=O)[C@H](CCCN=C(N)N)N(C)C1=O
The IC50 of the first is 1.8-fold higher: 16 nM for the first, 9 nM for the second. The second is the more potent here.

Going from CC(C)[C@H]1NC(=O)c2cc(cc(NC(=O)CCCCCNC(=O)c3ccc(NN)nc3)c2)CNC(=O)[C@H](CC(=O)O)NC(=O)CNC(=O)[C@H](CCCN=C(N)N)N(C)C1=O to CC(C)[C@H]1NC(=O)c2cc(cc(NC(=O)CCCCCN)c2)CNC(=O)[C@H](CC(=O)O)NC(=O)CNC(=O)[C@H](CCCN=C(N)N)N(C)C1=O, the IC50 falls from 8 nM to 5 nM (1.6-fold).

First: CC(C)[C@H]1NC(=O)c2cccc(c2)CNC(=O)[C@H](CC(=O)O)NC(=O)CNC(=O)[C@H](CCCN=C(N)N)N(C)C1=O
Second: CCOC(C)SCC(=O)NCC(CCC(=O)NCCCC[C@H]1NC(=O)c2cccc(c2)CNC(=O)[C@H](CC(=O)O)NC(=O)CNC(=O)[C@H](CCCN=C(N)N)N(C)C1=O)NC(=O)CSC(C)OCC (stereo partly drawn)
The IC50 of the first is 1.8-fold lower: 6 nM for the first, 11 nM for the second. The first is the more potent here.

First: CCOC(C)SCC(=O)NCC(CCC(=O)NCCCCCC(=O)Nc1cc2cc(c1)C(=O)N[C@H](C(C)C)C(=O)N(C)[C@@H](CCCN=C(N)N)C(=O)NCC(=O)N[C@@H](CC(=O)O)C(=O)NC2)NC(=O)CSC(C)OCC (stereo partly drawn)
Second: CC(C)[C@H]1NC(=O)c2cc(cc(NC(=O)CCCCCNC(=O)c3ccc(CN(CCSC(c4ccccc4)(c4ccccc4)c4ccccc4)CC(=O)NCCSC(c4ccccc4)(c4ccccc4)c4ccccc4)cc3)c2)CNC(=O)[C@H](CC(=O)O)NC(=O)CNC(=O)[C@H](CCCN=C(N)N)N(C)C1=O
The IC50 of the first is lower: 13 nM for the first, greater than 1000 nM for the second. The first is the more potent here.
